Data as given in patent US20070207123A1, “Amelioration of effects of cigarette smoke” (priority 2002, published 2007).
Marks after values point to notes of the source that are not given here.

What was measured:
B16 tumor cells = experiment: Experimental lung metastasis model, aerosolized SP; type: in vivo, mouse (B6); conditions: for #Tumors/2 Lungs: mean +/− SD; for % Change in #Tumors/2 Lungs: vs B16 alone
Procedure: (§1) Mice were treated with the SP analog [Sar^9, Met (O2)^11-substance P] for 15 minutes at the indicated doses following the cigarette smoke exposures as previously described (7, 10). Other than the genetically engineered SP experiments, all SP treatments were by the aerosol route using the previously described exposure chambers.
B16 tumor cells (H-2^b) were obtained from the American Type Cell Collection (ATCC) and grown in DMEM media (Sigma, St. Louis, Mo.) supplemented with 10% fetal bovine serum (Hyclone, Colo.), antibiotics, nonessential amino acids and glutamine as. Cells in log growth were used for all experiments. An experimental lung metastasis model was utilized in which B16 tumor cells (0.5×10^6 cells in 100 ul saline) were injected intravenously into syngeneic B6 mice. At 7-10 days post-injection the animals were sacrificed and the visually prominent (black) tumors on the surface of both lungs were enumerated.
The Student's t-test was utilized to analyze the data presented. A p value of 0.05 (or lower) was used as a minimally significant difference.

[1] = test system: pulmonary alveolar macrophages (PAM); experiment: TNF-alpha secretion by pulmonary alveolar macrophages (ELISA); type: cell-based, rat (Fischer 344); conditions: overnight incubation, baseline 8.3 pg/ml per 1 × 10^6 cells, N 5
Procedure: Rat pulmonary alveolar macrophages (PAM) were isolated from pathogen-free male Fischer 344 rats (Harlan, Indianapolis, Ind.). The rats were anesthetized intramuscularly with ketamine HCL (80 mg/kg; Parke-Davis, Morris Plains, N.J.), xylazine (10 mg/kg; Mobay Corp., Shawnee, Kans.) and acepromazine maleate (3 mg/kg; Fermenta Animal Health Co., Kansas City, Mo.). A tracheostomy was performed, with the insertion of a Teflon #18 gauge catheter (Critikon, Tampa Bay, Fla.) as an endotracheal tube. The rats were killed by exsanguination of the abdominal aorta. The lungs were removed and lavaged with 3 ml aliquots of normal sterile saline warmed to 37 C for a total of 6 washes. The lavaged total cell numbers and PAM differentials were determined from a 0.2 ml sample by hemocytometer counting and cytocentrifuge preparation stained with Diff-Quik (Dade Diagnostics, Aguada, Puerto Rico), respectively. The remaining lavaged fluid was pooled and centrifuged at 400×g for 10 minutes to obtain a cell pellet. […] Cells were then counted using a standard hemocytometer and placed in 12 well plates at a density of 10^4 cells/ml. […]
TNF-alpha secretion by pulmonary alveolar macrophages (PAM) was measured by ELISA (R&D Systems, Minneapolis, Minn.) according to the manufacturer's instructions (25).

[2] = test system: mice exposed to side-stream cigarette smoke (SSCS); experiment: Dynamic lung compliance after side-stream cigarette smoke (SSCS) exposure; type: in vivo, mouse (C57B1/6)
Procedure: C57B1/6 (B6, Jackson Labs) mice were utilized. Mice were used at an age of 8-12 weeks, 25-35 grams in weight. Female animals only were utilized. All animals were housed in the animal facility of the Dept. of Animal Resources at The University of Arizona Health Sciences Center. Animals were used in AAALAC-approved protocols.
Aerosolized exposures were performed using a DeVilbiss Ultra-Neb nebulizer (Model 099HD, Somerset, Pa.). Animals were exposed in a nose-only presentation while held in individual subject loading tubes similarly to that previously described (12). The tubes were nose cone-fitted to receiving adapters that originated from the common exposure chamber (volume 0.0027 m3, IN-TOX, Albuquerque, N. Mex.). […] Exposure concentration was determined by a seven-stage cascade impactor (IN-TOX) from changes in plate weights and measured immediately after each exposure. […]
Mice were anesthetized with ketamine hydrochloride (80 mg/kg), xylazine (10 mg/kg) and acepromazine maleate (3 mg/kg). […] Airflow was measured with a pneumotachograph (Fleisch #0000, Instrumentation Associates, New York, N.Y.) that was coupled to a differential pressure transducer (Validyne, Northridge, Calif.). […] These lung function parameters were measured with a modified PEDS-LAB (Medical Associated Services, Hatfield, Pa.) pulmonary function system. […]

[3] = test system: airway epithelium and basement membranes of SSCS-exposed mice; experiment: Electron microscopy of lung airway after SSCS exposure; type: in vivo, mouse (C57B1/6)
Procedure: Mice were exposed to side-stream cigarette smoke as previously described (23). […] The cigarette was lit, placed upright in a ring clamp and the smoke was directed into a funnel for distribution through the chamber (at a concentration designed to simulate human exposure in a smokey bar).
The Substance P (SP) agonist, [Sar^9, Met (O2)^11-substance P] was obtained from Sigma Chemicals (St. Louis, Mo.) and used after reconstitution in sterile saline.
as §1
The lungs were prepared for morphometric study by injection of half-strength Kamovsky's Fluid into a major artery at a constant pressure of 20 cm H2O for 1 h at room temperature. The fixed tissue was then tied off at the artery with #4 suture. The Pathology Core Laboratories of the Southwestern Environmental Health Science Center evaluated the fixed tissue for pathological changes. The fixed tissues were sliced, dehydrated and post-fixed in osmium tetroxide, dehydrated and embedded in Epon-Araldite for high-resolution electron microscopy. Thin sections were cut from the embedded tissue with a diamond knife, mounted on 200 um copper mesh grids, and doubly stained with lead citrate and uranyl acetate. The tissue was viewed and photographed using a Phillips CM12 electron microscope (maximum magnification of 19,000×) (21).
Animals were exposed to SSCS for 45 min/day for 7 days from 1R4 standard research cigarettes (cigarette is lit and then placed upright in a ring clamp and the smoke is directed into a funnel for distribution through our exposure chamber) at a concentration designed to simulate a “smokey bar” scenario for human exposure to sidestream cigarette smoke. The sidestream cigarette smoke is considered highly toxic, even compared to the mainstream cigarette smoke that a human smoker inhales, due to the low combustion temperature of the smoldering cigarette. Subsequent to the exposures, some mice were treated with 1 uM-aerosolized SP for 15 minutes. At the end of one week the animals were sacrificed and lungs removed for electron microscopic analysis. […] The structure of the airway is characterized by airway epithelial cells anchored to a basement membrane. Another basement membrane serves as the anchor for the airway endothelial cells. The SSCS electron micrograph is characterized by swelling in both basement membrane areas of the airway structure and loss of cilia on the surface of the airway epithelium. […]

[4] = test system: mononuclear cells of SSCS-exposed mice; experiment: Micronuclei formation in bone marrow and peripheral blood cells after SSCS exposure; type: in vivo, mouse (C57B1/6)
Procedure: Determination of micronuclei formation was made as described by Fenech (3). Briefly, animals were exposed to cigarette smoke ±SP treatment. Viable mononuclear cells were isolated from peripheral blood and bone marrow, stimulated with the mitogen PHA for 44 h, and treated with cytochalasin B for 28 h. Cytocentrifuge preparations were made, cells fixed and then analyzed at 1000× for micronuclei formation. At least 1000 cells were analyzed for each preparation.
Exposure to cigarette smoke results in genetic changes that can cause malignant cellular transformation (21, 22). Animals were exposed to SSCS as described above and sacrificed after 7 days. Viable mononuclear cells were isolated from peripheral blood and bone marrow, stimulated with the mitogen PHA for 44 h, and treated with cytochalasin B for 28 h. Cytocentrifuge preparations were made, cells fixed and then analyzed at 1000× for micronuclei formation. At least 1000 cells were analyzed from each preparation. […] Micronuclei formation in combination with damage of lung epithelia can result on pathological conditions such as emphysema and cancer (21).

[5] = SSCS 45 min/day then 15 min aerosol dose, FIG. 2
[6] = SSCS + SP, 7 days, mean +/− SD, N 6

## [Sar^9, Met (O2)^11-substance P] [SP]
B16 tumor cells; Experiments 1 to 3, aerosolized SP at the time of or after tumor induction
  inhibition of lung tumor formation: 58-97%
B16 tumor cells; Expt. 1: aerosolized SP at the time of tumor induction, N 4
  #Tumors/2 Lungs: 39 +/− 4*
B16 tumor cells; Expt. 1: aerosolized SP at the time of tumor induction
  % Change in #Tumors/2 Lungs: −63%
B16 tumor cells; Expt. 2: aerosolized SP at day 7 following tumor induction, N 4
  #Tumors/2 Lungs: 1 +/− 0.3*
B16 tumor cells; Expt. 2: aerosolized SP at day 7 following tumor induction
  % Change in #Tumors/2 Lungs: −97%
B16 tumor cells; Expt. 3: aerosolized SP at day 7 following tumor induction, N 8
  #Tumors/2 Lungs: 102 +/− 32*
B16 tumor cells; Expt. 3: aerosolized SP at day 7 following tumor induction
  % Change in #Tumors/2 Lungs: −58%
[1]; 8 nM SP
  Fold-Increase TNFa: 3.2X
[1]; 1 uM SP
  Fold-Increase TNFa: 5.4X
[2]; SP immediately after the smoke exposures
  alterations in lung compliance due to SSCS: prevented/reversed
[2]; SSCS 45 min/day for 1 week, then 1 uM aerosolized SP for 15 min, mean +/− SEM, N 15
  Dynamic Lung Compliance: 2.2 (0.02) ml · cm H2O^−1 · Kg^−1
[3]; SSCS 45 min/day 7 days, 1 uM aerosolized SP 15 min
  deterioration of the lung epithelium / basement membrane (electron microscopy): attenuated such deterioration of the lung epithelium
[3]; [5]
  airway basement membranes (electron micrograph): normal appearance of airway basement membranes
  airway cilia (electron micrograph): normal cilia
[3]; SSCS 45 min/day then 15 min aerosol dose, FIG. 3
  cell membrane between airway cells (electron micrograph): identifiable cell membrane between airway cells
[4]; SP immediately after SSCS exposure, blood and bone marrow cells
  levels of micronuclei formation versus control animals: comparable to control animals
[4]; [6]
  Percent Micronuclei, Blood: 0.01 +/− 0.01* Percent
  Percent Micronuclei, Bone Marrow: 0 +/− 0* Percent
